Assay results published in ChEMBL document CHEMBL1201862, “PubChem BioAssay data set” (2004).
Active and inactive are the calls of the source.

Tests used:
[1] = target: T1, Replicative DNA helicase DnaB (Mycobacterium tuberculosis, UniProt P9WMR3); experiment: DnaB intein splicing inhibitors, dose response, biochemical, cell-free fluorescence (AID 449749); type: functional
T1 sequence (P9WMR3 whole entry): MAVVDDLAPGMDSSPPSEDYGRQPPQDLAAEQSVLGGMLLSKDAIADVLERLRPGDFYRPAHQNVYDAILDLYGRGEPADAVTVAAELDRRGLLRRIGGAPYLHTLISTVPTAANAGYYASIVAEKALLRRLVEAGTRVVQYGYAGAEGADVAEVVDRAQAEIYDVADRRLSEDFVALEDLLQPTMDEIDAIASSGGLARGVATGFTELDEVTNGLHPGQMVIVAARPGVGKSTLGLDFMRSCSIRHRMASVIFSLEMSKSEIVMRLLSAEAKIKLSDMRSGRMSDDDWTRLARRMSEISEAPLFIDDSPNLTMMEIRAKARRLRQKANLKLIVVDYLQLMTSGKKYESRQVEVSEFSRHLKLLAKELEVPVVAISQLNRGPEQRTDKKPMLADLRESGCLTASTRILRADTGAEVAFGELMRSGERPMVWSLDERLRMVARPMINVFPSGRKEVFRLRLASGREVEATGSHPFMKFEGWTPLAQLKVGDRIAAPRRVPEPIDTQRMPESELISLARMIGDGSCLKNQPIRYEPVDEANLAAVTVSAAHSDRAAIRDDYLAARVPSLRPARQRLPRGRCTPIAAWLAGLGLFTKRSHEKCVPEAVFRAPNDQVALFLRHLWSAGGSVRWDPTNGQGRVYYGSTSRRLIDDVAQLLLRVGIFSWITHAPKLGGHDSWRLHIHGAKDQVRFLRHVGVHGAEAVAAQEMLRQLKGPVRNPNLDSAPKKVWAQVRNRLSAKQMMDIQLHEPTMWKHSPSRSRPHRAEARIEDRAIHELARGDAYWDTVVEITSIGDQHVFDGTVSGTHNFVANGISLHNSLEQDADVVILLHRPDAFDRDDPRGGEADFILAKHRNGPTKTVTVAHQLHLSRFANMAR

Cytochrome P450 2C19 = Cytochrome P450 2C19 (Homo sapiens, UniProt P33261); experiment: Cytochrome panel assay with activity outcomes. Panel member name: p450-cyp2c19 Compounds with AC50 equal or less than 10 uM are considered active; type: functional; settings: read-out: AC50
Protein RecA = target: T2, Protein RecA (Mycobacterium tuberculosis, UniProt P9WHJ3); experiment: Fluorescence Cell-Free Homogeneous Dose Retest to Identify Inhibitors of RecA-Intein Splicing Activity. [Related pubchem assays (depositor defined):AID2097, AID2223, AID489010, AID492950]; type: functional
T2 sequence (P9WHJ3 whole entry): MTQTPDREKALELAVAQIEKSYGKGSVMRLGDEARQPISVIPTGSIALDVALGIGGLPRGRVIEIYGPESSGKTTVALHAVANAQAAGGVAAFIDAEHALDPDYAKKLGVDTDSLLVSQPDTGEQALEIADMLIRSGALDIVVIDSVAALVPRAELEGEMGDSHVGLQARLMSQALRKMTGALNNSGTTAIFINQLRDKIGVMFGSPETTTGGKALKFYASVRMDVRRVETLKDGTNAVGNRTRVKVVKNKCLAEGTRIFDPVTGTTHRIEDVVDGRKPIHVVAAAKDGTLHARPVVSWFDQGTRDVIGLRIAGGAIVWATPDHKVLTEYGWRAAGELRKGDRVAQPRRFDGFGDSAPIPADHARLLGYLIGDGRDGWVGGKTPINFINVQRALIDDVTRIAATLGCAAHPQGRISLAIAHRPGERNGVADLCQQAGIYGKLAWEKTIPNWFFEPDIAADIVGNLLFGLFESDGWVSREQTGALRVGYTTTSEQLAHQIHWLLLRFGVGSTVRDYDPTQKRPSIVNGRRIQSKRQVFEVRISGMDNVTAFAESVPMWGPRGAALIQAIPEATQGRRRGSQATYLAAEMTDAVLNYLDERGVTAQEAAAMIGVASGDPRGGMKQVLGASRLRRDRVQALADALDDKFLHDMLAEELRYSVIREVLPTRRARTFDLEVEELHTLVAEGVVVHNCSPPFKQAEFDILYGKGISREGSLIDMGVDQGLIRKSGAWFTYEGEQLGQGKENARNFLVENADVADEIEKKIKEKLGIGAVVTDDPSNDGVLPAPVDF

Cytochrome P450 1A2 = target: T3, Cytochrome P450 1A2 (Homo sapiens, UniProt P05177);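 note: PubChem cytochrome P450 panel assay, CYP1A2 panel member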
T3 sequence (P05177 whole entry): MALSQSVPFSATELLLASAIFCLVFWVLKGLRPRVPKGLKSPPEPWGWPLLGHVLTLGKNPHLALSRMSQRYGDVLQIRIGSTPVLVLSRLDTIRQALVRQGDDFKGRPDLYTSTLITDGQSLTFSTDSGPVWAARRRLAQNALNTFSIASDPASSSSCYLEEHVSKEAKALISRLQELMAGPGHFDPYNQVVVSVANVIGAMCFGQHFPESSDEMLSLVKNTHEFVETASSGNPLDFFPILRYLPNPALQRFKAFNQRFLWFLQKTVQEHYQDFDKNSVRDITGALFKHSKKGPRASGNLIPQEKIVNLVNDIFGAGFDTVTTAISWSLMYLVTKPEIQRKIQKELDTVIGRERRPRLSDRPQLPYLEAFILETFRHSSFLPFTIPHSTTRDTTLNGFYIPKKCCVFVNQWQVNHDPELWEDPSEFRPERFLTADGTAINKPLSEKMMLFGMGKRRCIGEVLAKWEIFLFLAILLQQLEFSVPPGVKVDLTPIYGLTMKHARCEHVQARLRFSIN

INS1 = experiment: INS-1E survival protection against cytokine death – cell-based, luminescence, retest, dose response (AID 449756); type: functional; settings: Rattus norvegicus;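 note: cell death triggered by IL-1 beta plus TNF-alpha plus IFN-gamma mixture; protective hits raise ATP signal compared with cytokine alone wells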
[2] = Luminescence Cell-Based Dose Retest to Confirm Inhibitors of Cancer Stem Cells. [Related pubchem assays (depositor defined):AID2717, AID2721]; type: functional; settings: Homo sapiens
[3] = system: Streptococcus sp. 'group A'; experiment: Streptococcus pyogenes SK(-)GAS viability under kanamycin – luminescence, BacTiterGlo, confirmation, counter-screen for streptokinase expression inhibitor project, dose response (AID 1900); type: functional, organism-based
Streptococcus = experiment: GAS UMAA2166 growth inhibition – luminescence, BacTiterGlo, counter-screen for streptokinase expression inhibitor project, dose response (AID 1915); type: functional, organism-based;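 note: potency for reduction of bacterial viability or growth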
Cytochrome P450 2C9 = Cytochrome P450 2C9 (Homo sapiens, UniProt P11712)
Cytochrome P450 3A4 = Cytochrome P450 3A4 (Homo sapiens, UniProt P08684);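 note: CYP3A4 tested as one member of a cytochrome P450 panel screen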
[4] = Trypanosoma cruzi growth suppression in host cells – NIH3T3 host cells, beta-gal luminescence, confirmation (AID 2044); type: functional, cell-based;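 note: intracellular parasites grown in NIH/3T3 mouse fibroblasts as host cells; luminescent beta-galactosidase reporter signal from transgenic T. cruzi replicating inside host cells; inhibitors lower the luminescence signal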
[5] = NIH3T3 cell viability loss – ATP luminescence, mouse fibroblasts, counter-screen, dose response (AID 2010); type: functional, cell-based;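 note: cells exposed to compound for about 90 hours before reading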
[6] = target: T4, Corticotropin-releasing factor receptor 2/Corticotropin-releasing factor-binding protein (Homo sapiens, UniProt P24387+Q13324); experiment: activators of CRF receptor 2 with binding protein – uHTS hits, confirmation (AID 602473); type: functional; settings: read-out: EC50_Mean
T4 sequence (Q13324 whole entry): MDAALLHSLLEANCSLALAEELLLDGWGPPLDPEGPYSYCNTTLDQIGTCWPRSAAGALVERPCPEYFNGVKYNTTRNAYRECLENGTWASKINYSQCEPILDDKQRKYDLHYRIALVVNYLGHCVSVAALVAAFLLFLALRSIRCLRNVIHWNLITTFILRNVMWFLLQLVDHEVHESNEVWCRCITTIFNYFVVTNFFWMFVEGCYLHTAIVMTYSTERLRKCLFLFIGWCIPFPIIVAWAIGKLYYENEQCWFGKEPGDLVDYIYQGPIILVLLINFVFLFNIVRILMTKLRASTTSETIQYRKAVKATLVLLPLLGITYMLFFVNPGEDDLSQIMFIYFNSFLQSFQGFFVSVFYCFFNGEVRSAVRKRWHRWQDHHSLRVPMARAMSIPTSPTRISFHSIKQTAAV
T4 sequence (P24387 whole entry): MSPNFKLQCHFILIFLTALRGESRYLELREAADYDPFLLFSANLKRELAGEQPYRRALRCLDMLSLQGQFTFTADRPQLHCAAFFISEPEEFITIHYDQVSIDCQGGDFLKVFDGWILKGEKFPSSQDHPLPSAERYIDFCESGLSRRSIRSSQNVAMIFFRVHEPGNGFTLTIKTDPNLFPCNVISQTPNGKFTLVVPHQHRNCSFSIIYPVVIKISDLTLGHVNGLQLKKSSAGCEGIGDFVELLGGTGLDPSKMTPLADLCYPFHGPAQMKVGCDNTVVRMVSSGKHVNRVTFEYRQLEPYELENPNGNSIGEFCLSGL

Sequence of Cytochrome P450 2C19 (P33261 whole entry): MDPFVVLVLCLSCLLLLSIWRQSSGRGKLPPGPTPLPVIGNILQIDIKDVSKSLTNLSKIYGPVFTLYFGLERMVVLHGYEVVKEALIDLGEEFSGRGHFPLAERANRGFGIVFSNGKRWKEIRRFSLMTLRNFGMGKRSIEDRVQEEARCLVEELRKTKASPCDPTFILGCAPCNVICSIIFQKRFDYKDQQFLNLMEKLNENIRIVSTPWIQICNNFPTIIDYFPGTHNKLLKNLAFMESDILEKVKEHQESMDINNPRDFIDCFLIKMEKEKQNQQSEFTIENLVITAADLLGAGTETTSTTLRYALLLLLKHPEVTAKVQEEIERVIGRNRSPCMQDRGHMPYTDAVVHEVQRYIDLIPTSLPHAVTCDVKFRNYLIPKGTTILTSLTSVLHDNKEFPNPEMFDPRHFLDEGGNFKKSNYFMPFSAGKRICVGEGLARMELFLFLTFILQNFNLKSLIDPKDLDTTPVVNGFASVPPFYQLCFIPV
Sequence of Cytochrome P450 2C9 (P11712 whole entry): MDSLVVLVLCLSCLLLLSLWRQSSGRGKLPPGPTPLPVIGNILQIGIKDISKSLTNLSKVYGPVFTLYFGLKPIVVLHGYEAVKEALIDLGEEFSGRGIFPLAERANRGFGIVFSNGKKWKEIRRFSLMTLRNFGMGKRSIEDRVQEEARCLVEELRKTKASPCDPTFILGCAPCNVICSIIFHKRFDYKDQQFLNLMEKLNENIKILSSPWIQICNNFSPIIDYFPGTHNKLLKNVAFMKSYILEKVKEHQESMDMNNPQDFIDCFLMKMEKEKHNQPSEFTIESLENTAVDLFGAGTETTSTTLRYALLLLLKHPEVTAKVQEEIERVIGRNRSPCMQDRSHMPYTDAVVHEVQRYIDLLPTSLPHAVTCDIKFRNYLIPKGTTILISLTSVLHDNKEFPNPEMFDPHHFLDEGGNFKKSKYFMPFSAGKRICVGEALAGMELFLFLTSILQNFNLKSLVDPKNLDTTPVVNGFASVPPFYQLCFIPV
Sequence of Cytochrome P450 3A4 (P08684 whole entry): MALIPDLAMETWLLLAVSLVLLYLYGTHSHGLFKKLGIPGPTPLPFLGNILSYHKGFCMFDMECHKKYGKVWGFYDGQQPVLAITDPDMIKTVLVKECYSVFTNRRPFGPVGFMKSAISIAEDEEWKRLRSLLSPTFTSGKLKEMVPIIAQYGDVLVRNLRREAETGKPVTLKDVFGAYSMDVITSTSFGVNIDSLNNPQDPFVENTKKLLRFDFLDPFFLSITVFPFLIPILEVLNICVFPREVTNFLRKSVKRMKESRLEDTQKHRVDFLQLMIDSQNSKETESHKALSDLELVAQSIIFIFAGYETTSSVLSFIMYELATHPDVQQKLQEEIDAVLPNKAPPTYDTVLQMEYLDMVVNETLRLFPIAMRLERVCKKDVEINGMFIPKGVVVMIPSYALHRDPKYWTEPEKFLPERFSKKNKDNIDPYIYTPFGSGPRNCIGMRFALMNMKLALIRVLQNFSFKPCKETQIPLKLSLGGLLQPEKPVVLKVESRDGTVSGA

Structure (SMILES) | AC50 [1] | EC50 (Protein RecA) | AC50 (INS1) | further results
Clc1ccc(C2=C3CCCCn4c(-c5ccccc5)c[n+](c43)C2)cc1 | > 380 µM (inactive) | 50 µM (active) | – | AC50 (Cytochrome P450 2C19): 1.12 µM (inconclusive); AC50 (Cytochrome P450 1A2): 12.6 µM (inconclusive)
Cc1c(C)n(O)c2ccc3nonc3c12 | > 380 µM (inactive) | 3.67 µM (active) | – | –
COc1ccc(/C=C/C(=O)c2ccncc2)c2ccccc12 | > 120 µM (inactive) | 8.84 µM (active) | 26.7 µM (active) | AC50 [2]: 11.8 µM (active)
NNc1ncnc2scc(-c3ccc(Cl)cc3)c12 | – | – | 6.34 µM (active) | –
CC1=NNC(=O)C1Cc1ccccc1C (stereo unspecified) | 0.538 µM (active) | 0.329 µM (active) | – | –
Cc1nnc(SCC2=C(C(=O)O)N3C(=O)C(NC(=O)Cn4nc(C)c(Cl)c4C)C3SC2)s1 (stereo unspecified) | – | – | – | EC50 [3]: < 0.06 µM (active); EC50 (Streptococcus): 0.115 µM (active)
CCc1ccc(-n2c(C)cc(/C=N/NC(=O)c3ccncc3)c2C)cc1 | – | – | 14.9 µM (active) | –
C[C@@]12CC[C@H]3[C@@H](CC[C@@H]4C[C@H](O)CC[C@]43C)[C@H]1CC[C@H]2O | – | – | – | AC50 (Cytochrome P450 2C9): 25.1 µM (inconclusive); AC50 (Cytochrome P450 2C19): 31.6 µM (inconclusive); AC50 (Cytochrome P450 3A4): 10 µM (inconclusive); AC50 (Cytochrome P450 1A2): 15.8 µM (inconclusive)
O=C(C[n+]1ccccc1)NNc1ccccc1 | – | – | – | AC50 [2]: 1.47 µM (active)
CCc1c(C)sc(NC(=O)/C=C/c2ccc3c(c2)OCO3)c1C(=O)OC | – | – | – | AC50 [2]: 0.768 µM (active)
CC(=O)Nc1ccc(C2=CC(=O)C[C@H](c3ccc4c(c3)OCO4)C2)cc1 | – | – | > 260 µM (inactive) | –
CCOC(=O)c1ccc(Nc2cc(C)nc(-c3ccccc3)n2)cc1 | – | – | – | AC50 [2]: 2.1 µM (active)
Cn1c(-c2ccccc2)cc2c3no[n+]([O-])c3ccc21 | – | – | 2.09 µM (active) | EC50 [4]: 0.707 µM (active); EC50 [5]: 8.01 µM (active)
C=C(C)C(=O)NC1=NN(c2ccccc2)C(=O)C1 | 3.66 µM (active) | 37 µM (active) | – | –
Cc1ccccc1NS(=O)(=O)c1cc2c(cc1C)NC(=O)CO2 | – | – | – | EC50 [6]: > 53 µM (inactive)
Cc1ccc(/N=C2\C(Cl)=C(O)OC2OC(=O)c2ccco2)cc1C (stereo unspecified) | 11.5 µM (active) | 8.65 µM (active) | – | –
CC1(C)C(C=C(Cl)Cl)C1C(=O)Nc1ccc([N+](=O)[O-])cc1 (stereo unspecified) | – | – | 7.67 µM (active) | –
COc1ccc(OC)c(-c2cc(-c3cccnc3)nc(N)c2C#N)c1 | – | – | – | AC50 [2]: 0.766 µM (active)
CC(C)c1n[nH]c2c1C(c1ccc(OC(=O)c3ccco3)cc1)C(C#N)=C(N)O2 (stereo unspecified) | 6.85 µM (active) | 3.02 µM (active) | – | –
O=C(NCC(c1cccs1)N1CCOCC1)c1ccc(Cl)s1 (stereo unspecified) | – | – | – | AC50 [2]: 2.89 µM (active)
c1ccc(CCNCc2cccs2)cc1 | > 380 µM (inactive) | > 380 µM (inactive) | – | –
Cc1ccc(C(c2c(C)n[nH]c2O)c2c(C)n[nH]c2O)cc1 | 0.36 µM (active) | 0.248 µM (active) | – | –
COc1ccc(-c2nn(-c3ccccc3)cc2/C=N/Nc2ccc3ccccc3n2)cc1OC | – | – | 1.5 µM (active) | –
COc1cc([N+](=O)[O-])ccc1NC(=O)CC1S/C(=N\c2ccc(F)cc2)N(CCC2=CCCCC2)C1=O (stereo unspecified) | – | – | 4.29 µM (active) | –
CCOCCCNC(=O)c1cnc2cc(OC)ccc2c1O | – | – | > 260 µM (inactive) | –
O=S(=O)(O)c1cc(/N=[N+](\[O-])c2cc(S(=O)(=O)O)c3ccccc3c2)cc2ccccc12 | – | – | – | AC50 (Cytochrome P450 2C9): 7.94 µM (inconclusive); AC50 (Cytochrome P450 2C19): 3.98 µM (inconclusive); AC50 (Cytochrome P450 1A2): 1.26 µM (inconclusive)
COC(=O)c1cccc(NC(S)=NCc2ccc(Cl)cc2)c1 | – | – | – | EC50 [3]: 13 µM (active); EC50 (Streptococcus): 15.8 µM (active)
Cc1ccc(Sc2oc(/C=N/n3cnnc3)cc2Br)cc1 | 4.42 µM (active) | 9.82 µM (active) | – | –
